{"source": "ChEMBL document CHEMBL1201862", "about": "“PubChem BioAssay data set” (2004)", "key": {"[1]": {"system": "Streptococcus sp. 'group A'", "assay": "Streptococcus pyogenes SK(-)GAS viability under kanamycin – luminescence, BacTiterGlo, confirmation, counter-screen for streptokinase expression inhibitor project, dose response (AID 1900)", "assay_type": "functional, organism-based"}, "Streptokinase A": {"biological_target": "T1, Streptokinase A (Streptococcus pyogenes serotype M1, UniProt P10520)", "T1 sequence (P10520 whole entry)": "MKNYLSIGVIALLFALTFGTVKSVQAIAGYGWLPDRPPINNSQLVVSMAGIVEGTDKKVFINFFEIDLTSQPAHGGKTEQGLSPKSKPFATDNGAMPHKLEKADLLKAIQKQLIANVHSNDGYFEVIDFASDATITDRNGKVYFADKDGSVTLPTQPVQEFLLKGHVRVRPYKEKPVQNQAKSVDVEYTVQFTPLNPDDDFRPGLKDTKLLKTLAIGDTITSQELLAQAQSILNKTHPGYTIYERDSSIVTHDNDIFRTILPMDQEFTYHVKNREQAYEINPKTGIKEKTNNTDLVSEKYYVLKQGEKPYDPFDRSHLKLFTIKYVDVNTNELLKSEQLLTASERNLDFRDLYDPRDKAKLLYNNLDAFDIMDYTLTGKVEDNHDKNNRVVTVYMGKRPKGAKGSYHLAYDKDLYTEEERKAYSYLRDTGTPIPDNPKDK", "assay": "viability-normalized secreted streptokinase activity reduction – plasminogen activation absorbance, OD405, dose response (AID 1914)", "assay_type": "functional, Streptococcus pyogenes M1 GAS"}, "Streptococcus": {"system": "Streptococcus", "assay": "GAS UMAA2166 growth inhibition – luminescence, BacTiterGlo, counter-screen for streptokinase expression inhibitor project, dose response (AID 1915);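 note: potency for reduction of bacterial viability or growth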", "assay_type": "functional, organism-based"}, "[2]": {"biological_target": "T2, Short transient receptor potential channel 4 (Mus musculus, UniProt Q9QUQ5)", "T2 sequence (Q9QUQ5 whole entry)": "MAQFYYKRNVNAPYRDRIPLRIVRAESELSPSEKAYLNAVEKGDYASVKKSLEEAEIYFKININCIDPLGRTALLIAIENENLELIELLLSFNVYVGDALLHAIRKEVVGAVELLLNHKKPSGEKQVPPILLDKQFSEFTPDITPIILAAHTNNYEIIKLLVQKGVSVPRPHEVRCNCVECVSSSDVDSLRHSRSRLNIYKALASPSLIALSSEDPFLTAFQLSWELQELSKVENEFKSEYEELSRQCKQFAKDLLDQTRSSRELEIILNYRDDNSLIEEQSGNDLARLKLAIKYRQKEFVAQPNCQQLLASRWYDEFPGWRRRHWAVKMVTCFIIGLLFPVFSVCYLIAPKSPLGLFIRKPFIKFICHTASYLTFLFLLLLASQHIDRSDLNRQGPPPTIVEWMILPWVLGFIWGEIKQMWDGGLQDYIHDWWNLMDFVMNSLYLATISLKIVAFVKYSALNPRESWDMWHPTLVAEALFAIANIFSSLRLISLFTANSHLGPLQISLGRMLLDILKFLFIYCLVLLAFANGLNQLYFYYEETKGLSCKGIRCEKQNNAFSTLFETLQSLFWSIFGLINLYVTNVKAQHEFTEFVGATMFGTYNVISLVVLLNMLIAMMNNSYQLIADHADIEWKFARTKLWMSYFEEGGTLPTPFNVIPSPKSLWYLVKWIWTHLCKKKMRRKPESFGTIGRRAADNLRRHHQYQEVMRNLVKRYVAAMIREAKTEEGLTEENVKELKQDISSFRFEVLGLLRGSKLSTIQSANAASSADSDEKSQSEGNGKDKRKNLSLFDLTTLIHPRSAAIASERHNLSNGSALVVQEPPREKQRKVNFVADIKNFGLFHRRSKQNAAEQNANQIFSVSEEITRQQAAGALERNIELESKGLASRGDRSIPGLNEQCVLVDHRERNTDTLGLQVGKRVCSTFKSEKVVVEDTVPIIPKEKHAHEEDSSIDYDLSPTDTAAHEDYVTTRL", "assay": "block of DAMGO-driven TRPC4 calcium entry – cell-based, HEK293 TRPC4/mu-opioid, Fluo-4 calcium, dose response (AID 434942);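 note: potency of inhibitors blocking the TRPC4 calcium response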", "assay_type": "functional"}, "Nonstructural protein 1": {"biological_target": "Nonstructural protein 1 (Influenza A virus, UniProt Q194T2)", "sequence (Q194T2 whole entry)": "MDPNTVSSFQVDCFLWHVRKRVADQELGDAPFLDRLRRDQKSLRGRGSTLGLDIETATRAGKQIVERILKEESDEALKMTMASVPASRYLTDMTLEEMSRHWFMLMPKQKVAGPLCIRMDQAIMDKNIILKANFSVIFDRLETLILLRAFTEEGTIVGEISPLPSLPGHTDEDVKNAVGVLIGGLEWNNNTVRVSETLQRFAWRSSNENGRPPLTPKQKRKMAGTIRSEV", "assay_type": "functional, Influenza A virus (A/California/07/2009(H1N1))"}, "INS1": {"system": "INS1", "assay": "INS-1E survival protection against cytokine death – cell-based, luminescence, retest, dose response (AID 449756);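 note: cell death triggered by IL-1 beta plus TNF-alpha plus IFN-gamma mixture; protective hits raise ATP signal compared with cytokine alone wells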", "assay_type": "functional", "settings": "Rattus norvegicus"}, "[3]": {"assay": "IC50 of Artemis nuclease activity blockers – biochemical, fluorescence intensity, dose response (AID 720701);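 note: Artemis endonuclease enzyme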", "assay_type": "functional"}, "[4]": {"biological_target": "Voltage-dependent T-type calcium channel subunit alpha-1H (Homo sapiens, UniProt O95180)", "assay_type": "functional"}, "[5]": {"assay": "reduction of Shn3 3'UTR-driven luciferase in osteoblasts – cell-based, Clone20 osteoblasts, firefly luciferase, cherry-picked, dose response (AID 624132)", "assay_type": "functional"}, "[6]": {"assay": "Shn3 3'UTR reporter signal decrease – cell-based, Clone20 osteoblasts, firefly luciferase, cherry-pick, set 2, Schnurri-3 inhibitor project, dose response (AID 720490);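 note: actives lower the luminescence signal as inhibitors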", "assay_type": "functional"}, "[7]": {"biological_target": "1-phosphatidylinositol 4,5-bisphosphate phosphodiesterase gamma-1 (Homo sapiens, UniProt P19174)", "sequence (P19174 whole entry)": "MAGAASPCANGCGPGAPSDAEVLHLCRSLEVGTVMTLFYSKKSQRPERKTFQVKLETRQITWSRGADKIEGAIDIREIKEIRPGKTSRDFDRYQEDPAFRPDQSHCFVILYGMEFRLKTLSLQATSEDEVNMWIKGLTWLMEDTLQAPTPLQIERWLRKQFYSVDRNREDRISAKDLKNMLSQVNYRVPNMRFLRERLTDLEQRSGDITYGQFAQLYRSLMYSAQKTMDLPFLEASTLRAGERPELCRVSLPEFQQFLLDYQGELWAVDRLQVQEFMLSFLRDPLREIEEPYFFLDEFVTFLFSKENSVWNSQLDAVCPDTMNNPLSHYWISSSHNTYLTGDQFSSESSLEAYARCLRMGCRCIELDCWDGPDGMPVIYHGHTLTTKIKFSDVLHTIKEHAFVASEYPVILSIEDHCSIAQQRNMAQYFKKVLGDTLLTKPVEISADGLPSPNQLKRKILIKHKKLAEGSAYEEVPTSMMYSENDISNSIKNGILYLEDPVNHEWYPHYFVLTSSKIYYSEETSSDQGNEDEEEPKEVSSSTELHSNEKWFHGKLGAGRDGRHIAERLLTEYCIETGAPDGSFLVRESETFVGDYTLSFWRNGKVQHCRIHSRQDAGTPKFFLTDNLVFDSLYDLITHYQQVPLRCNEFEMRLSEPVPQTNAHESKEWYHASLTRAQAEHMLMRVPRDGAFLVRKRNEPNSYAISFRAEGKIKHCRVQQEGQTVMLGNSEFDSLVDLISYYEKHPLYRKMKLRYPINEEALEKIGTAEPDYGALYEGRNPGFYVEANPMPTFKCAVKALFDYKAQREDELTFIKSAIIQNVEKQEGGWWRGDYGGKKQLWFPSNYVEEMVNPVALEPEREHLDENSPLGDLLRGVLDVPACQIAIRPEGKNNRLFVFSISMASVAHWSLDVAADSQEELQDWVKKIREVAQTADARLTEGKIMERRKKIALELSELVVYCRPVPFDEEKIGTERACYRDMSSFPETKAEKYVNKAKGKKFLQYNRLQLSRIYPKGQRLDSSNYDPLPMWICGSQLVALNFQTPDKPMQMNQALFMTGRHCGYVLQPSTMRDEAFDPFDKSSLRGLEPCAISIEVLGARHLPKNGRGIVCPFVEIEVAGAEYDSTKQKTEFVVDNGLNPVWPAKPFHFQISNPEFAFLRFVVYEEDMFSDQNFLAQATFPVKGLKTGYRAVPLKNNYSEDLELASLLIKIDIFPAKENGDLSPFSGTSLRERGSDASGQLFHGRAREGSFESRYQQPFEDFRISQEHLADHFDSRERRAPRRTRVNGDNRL", "assay": "Counterscreen for inhibitors of phospholipase C isozymes (PLC-B3): Fluorescence-based biochemical high throughput dose response assay to identify inhibitors of phospholipase C isozymes (PLC-gamma1)."}, "[8]": {"biological_target": "1-phosphatidylinositol 4,5-bisphosphate phosphodiesterase beta-3 (Homo sapiens, UniProt Q01970)", "sequence (Q01970 whole entry)": "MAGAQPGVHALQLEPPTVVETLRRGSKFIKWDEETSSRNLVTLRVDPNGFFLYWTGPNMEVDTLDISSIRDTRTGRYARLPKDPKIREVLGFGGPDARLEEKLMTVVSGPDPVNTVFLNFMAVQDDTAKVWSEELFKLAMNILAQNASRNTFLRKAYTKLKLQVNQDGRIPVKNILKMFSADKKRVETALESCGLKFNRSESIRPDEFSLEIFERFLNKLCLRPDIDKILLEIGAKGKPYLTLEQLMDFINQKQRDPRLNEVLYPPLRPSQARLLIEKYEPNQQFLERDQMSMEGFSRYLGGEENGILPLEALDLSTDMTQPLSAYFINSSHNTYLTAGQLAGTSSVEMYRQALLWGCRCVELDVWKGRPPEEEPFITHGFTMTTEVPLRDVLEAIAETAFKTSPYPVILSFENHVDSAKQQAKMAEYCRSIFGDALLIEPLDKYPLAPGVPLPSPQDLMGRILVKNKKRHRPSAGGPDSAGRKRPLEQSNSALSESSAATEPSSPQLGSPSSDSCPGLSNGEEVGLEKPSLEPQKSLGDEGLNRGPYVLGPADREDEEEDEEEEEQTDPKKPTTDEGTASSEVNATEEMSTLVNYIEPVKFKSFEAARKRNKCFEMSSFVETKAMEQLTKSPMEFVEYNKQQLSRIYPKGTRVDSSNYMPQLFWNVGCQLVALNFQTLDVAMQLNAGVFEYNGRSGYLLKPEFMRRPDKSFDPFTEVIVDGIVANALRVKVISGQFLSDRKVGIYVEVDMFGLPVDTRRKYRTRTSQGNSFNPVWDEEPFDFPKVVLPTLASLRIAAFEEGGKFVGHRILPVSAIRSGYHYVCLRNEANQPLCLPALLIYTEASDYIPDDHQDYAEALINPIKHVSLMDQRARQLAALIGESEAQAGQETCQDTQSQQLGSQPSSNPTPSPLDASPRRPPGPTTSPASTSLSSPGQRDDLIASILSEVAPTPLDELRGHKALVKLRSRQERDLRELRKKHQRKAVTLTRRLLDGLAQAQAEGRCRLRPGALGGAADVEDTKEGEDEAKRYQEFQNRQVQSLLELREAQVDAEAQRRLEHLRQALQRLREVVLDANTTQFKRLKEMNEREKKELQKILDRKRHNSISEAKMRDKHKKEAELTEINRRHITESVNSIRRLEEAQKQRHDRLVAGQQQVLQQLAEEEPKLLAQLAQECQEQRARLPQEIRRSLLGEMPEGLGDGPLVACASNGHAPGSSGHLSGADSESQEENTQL", "assay": "Fluorescence-based biochemical high throughput dose response assay to identify inhibitors of phospholipase C isozymes (PLC-B3)."}, "Paired box protein Pax-8": {"biological_target": "Paired box protein Pax-8 (Homo sapiens, UniProt Q06710)", "sequence (Q06710 whole entry)": "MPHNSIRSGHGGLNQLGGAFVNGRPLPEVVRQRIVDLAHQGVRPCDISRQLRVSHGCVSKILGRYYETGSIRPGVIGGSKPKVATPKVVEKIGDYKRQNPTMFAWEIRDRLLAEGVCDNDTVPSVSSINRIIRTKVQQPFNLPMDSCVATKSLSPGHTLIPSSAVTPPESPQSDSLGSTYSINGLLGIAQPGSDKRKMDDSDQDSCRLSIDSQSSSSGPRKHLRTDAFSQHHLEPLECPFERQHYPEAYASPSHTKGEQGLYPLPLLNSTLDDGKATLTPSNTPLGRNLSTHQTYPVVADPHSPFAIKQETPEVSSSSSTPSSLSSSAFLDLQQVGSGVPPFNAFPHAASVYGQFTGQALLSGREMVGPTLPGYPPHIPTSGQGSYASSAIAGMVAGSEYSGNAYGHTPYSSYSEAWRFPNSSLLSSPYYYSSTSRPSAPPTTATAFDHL", "assay": "PAX8 transcriptional activity inhibition in RMG-I – RMG-I cells, luciferase, cherry-pick, dose response (AID 687027);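 note: luciferase reporter driven by Pax8 target thyroperoxidase promoter measured by SteadyGlo luminescence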", "assay_type": "functional, cell-based"}, "[9]": {"assay": "A2780 cell killing – plate reader, dry powder samples, cytotoxicity control, dose response (AID 743046)", "assay_type": "functional, cell-based"}, "[10]": {"assay": "CMV-driven luciferase expression suppression in HEK293 – cell-based, luminescence, dry powder, counter-screen for Pax8 inhibitor project, dose response (AID 743020)", "assay_type": "functional"}, "[11]": {"assay": "OVCAR-3 cell viability loss – plate reader, dry powder samples, PAX8 inhibitor project, dose response (AID 743044)", "assay_type": "functional, cell-based"}, "[12]": {"assay": "IGROV1 cell killing – plate reader, dry powder samples, PAX8 inhibitor project, dose response (AID 743043)", "assay_type": "functional, cell-based", "settings": "IGROV-1"}, "[13]": {"assay": "OVCAR8 cell viability loss – plate reader, dry powder samples, PAX8 project, dose response (AID 743197)", "assay_type": "functional, cell-based", "settings": "OVCAR-8"}, "[14]": {"assay": "Late stage counterscreen for inhibitors of Trypanosoma brucei methionyl tRNA synthetase (MetRS): Luminescence-based cell-based high throughput dose response assay to identify compounds that are cytotoxic to Jurkat human T lymphocyte cells.", "assay_type": "functional"}}, "note": "Activity calls are given as the source filed them.", "data": [{"smiles": "c1ccc(-c2nc(NCc3ccco3)c3ccccc3n2)nc1", "values": [{"measurement": "EC50", "setting": "[1]", "value": "3.14 µM (active)"}, {"measurement": "EC50", "setting": "Streptokinase A", "value": "> 150 µM (not active)"}, {"measurement": "EC50", "setting": "Streptococcus", "value": "12.1 µM (active)"}, {"measurement": "EC50", "setting": "[2]", "value": "0.335 µM (active)"}, {"measurement": "IC50", "setting": "Nonstructural protein 1", "value": "14.5 µM (active)"}, {"measurement": "AC50", "setting": "INS1", "value": "3.41 µM (active)"}, {"measurement": "IC50", "setting": "[3]", "value": "8.96 µM (active)"}]}, {"smiles": "Cc1cccc(-c2noc(CN(C(=O)C(c3ccccc3)c3ccccc3)C(C)C)n2)c1", "values": [{"measurement": "EC50", "setting": "[4]", "value": "6.72 µM (active)"}, {"measurement": "AC50", "setting": "[5]", "value": "6.27 µM (active)"}, {"measurement": "AC50", "setting": "[6]", "value": "12.3 µM (active)"}]}, {"smiles": "CCCCN=C(S)NNC(=O)c1csc(C)c1", "values": [{"measurement": "IC50", "setting": "[7]", "value": "> 122 µM (inactive)"}, {"measurement": "IC50", "setting": "[8]", "value": "> 122 µM (inactive)"}]}, {"smiles": "COc1ccc2c3c(n(C)c2c1)[C@H](CO)N(Cc1ccccc1)CC31CCN(S(=O)(=O)c2ccc(C)cc2)CC1", "values": [{"measurement": "AC50", "setting": "Paired box protein Pax-8", "value": "6.41 µM (active)"}, {"measurement": "AC50", "setting": "[9]", "value": "17.4 µM (active)"}, {"measurement": "AC50", "setting": "[10]", "value": "14.3 µM (active)"}, {"measurement": "AC50", "setting": "[11]", "value": "17.8 µM (active)"}, {"measurement": "AC50", "setting": "[12]", "value": "51.1 µM (active)"}, {"measurement": "AC50", "setting": "[13]", "value": "13.2 µM (active)"}]}, {"smiles": "C[C@H]1CN([C@@H](C)CO)C(=O)Cc2cc(NC(=O)Nc3ccc4c(c3)OCO4)ccc2O[C@@H]1CN(C)CC1CCCCC1", "values": [{"measurement": "AC50", "setting": "Paired box protein Pax-8", "value": "31.2 µM (active)"}, {"measurement": "AC50", "setting": "[9]", "value": "22.2 µM (active)"}, {"measurement": "AC50", "setting": "[13]", "value": "62.9 µM (active)"}]}, {"smiles": "CCO[C@@H]1OC(C(=O)NCc2nc3ccccc3[nH]2)=C[C@H](c2ccc(Br)cc2)[C@H]1CCCO", "values": [{"measurement": "IC50", "setting": "[14]", "value": "45.4 µM (inactive)"}]}]}
